From patent US12479888B2, “Polypeptide and application thereof” (HDL SOLUTIONS OTTAWA, priority 2019, dated 2025)
Where “and” joins values, the source holds several entries; their conditions need not be identical. Equal values may be shown once. Ends that are not written are not given here. * marks the point of attachment. Stearoyl = CCCCCCCCCCCCCCCCCC(=O)*

Assays:
Format in all cases: in vivo
apoE knockout mice [1] = assay: Oil Red O staining of full-length aorta, area of neutral lipids; details: HFD+21H21 vs HFD, 50 μg tail vein once every four days, 10 injections, p value=4.40108E-05
Description: (§1) Male apoE knockout mice (C57BL/6J) at age of 10 weeks were purchased from GemPharmatech, Nanjing, Jiangsu, China. The mice were fed with low fat diet [SPF growth and reproduction feed for rats and mice: 12.95% fat (wt/wt), 24.02% protein (wt/wt)] from Beijing KeaoXieli Feed Co. Ltd., Beijing, China in a pathogen-free facility for two weeks, and then divided into the following three groups (8 mice each group): (a) the control group was fed low fat diet, referred to as Chow; (b) the high-fat group was fed high-fat diet (HFD) [21% fat (wt/wt), 0.15% (wt/wt) cholesterol, 20% protein (wt/wt), Research Diets, New Brunswick, NJ, D12079B], referred to as the HFD; (c) the treatment group was fed high-fat diet plus the injection through tail vein with polypeptide 21H21 (50 μg/200μL 1× PBS) once every four days, referred to as the HFD+21H21. The total injection was 10 times. One day after the last injection, the mice were anesthetized and euthanized in carbon dioxide, and then blood, liver and aorta were collected. During the period of the experiment, each group of mice was weighed. All animal experiments were carried out in accordance with the animal management guidelines of the People's Republic of China.
Aorta separation in Experimental Example 1 was carried out as Tangirala R K, et al. (Circulation. 1999; 100: 1816-1822). […]

apoE knockout mice [2] = assay: Oil Red O staining of aortic root cryostat sections, area of neutral lipids; details: HFD+21H21 vs HFD, 50 μg tail vein once every four days, 10 injections
Description: as §1
The upper half of the heart together with the aortic root tissue collected in Experimental Example 1 was embedded in OCT compound (Sakura Tissue-Tek) and stored at −80° C. […]

apoE knockout mice [3] = assay: Oil Red O staining of liver cryostat sections, area of neutral lipids; details: HFD+21H21 vs HFD, 50 μg tail vein once every four days, 10 injections, p value=0.0004
Description: as §1
Liver tissue collected in Experimental Example 1 was embedded in OCT compound (Sakura Tissue-Tek) and then stored at −80° C. […]

[4] = Body weight of LDLR-deficient mice on high-fat diet
Description: (§2) Male LDLR-deficient mice (C57BL/6-Ldlrem1Cd82/Nju) at age of 11 weeks were purchased fromGemPharmatech, Nanjing, Jiangsu, China. The mice were fed with low fat diet [SPF growth and reproduction feed for rats and mice: 12.95% fat (wt/wt), 24.02% protein (wt/wt)] from Beijing KeaoXieli Feed Co. Ltd., Beijing, China in a pathogen-free facility for two weeks, and then divided into the following three groups (8 mice each group): (a) the control group was fed low fat diet, referred to as Chow; (b) the high-fat group was fed high-fat diet (HFD) [21% fat (wt/wt), 0.15% (wt/wt) cholesterol, 20% protein (wt/wt), Research Diets, New Brunswick, NJ, D12079B], referred to as the HFD; (c) the treatment group was fed high-fat diet plus the injection through tail vein with polypeptide 21H21(50μg/200μL lx PBS) once every three days, referred to as the HFD+21H21. The total injection was 10 times. One day after the last injection, the mice were anesthetized and euthanized in carbon dioxide, and then blood, liver and aorta werecollected. During the period of the experiment, each group of mice was weighed. All animal experiments were carried out in accordance with the animal management guidelines of the People's Republic of China.

[5] = Body weight of apoE knockout mice on high-fat diet
Description: as §1

LDLR-deficient mice = assay: Oil Red O staining of full-length aorta, area of neutral lipids; details: HFD+21H21 vs HFD, 50 μg tail vein once every three days, 10 injections
Description: as §2
Aorta separation in Experimental Example 4 was carried out as Tangirala RK, et al. (Circulation. 1999; 100: 1816-1822). […]

21H21: Stearic acid conjugated to the N-terminus of polypeptide SEQ ID NO: 3 (FAYLQDVVEQAIIRVLTGTEK) (Stearoyl-FAYLQDVVEQAIIRVLTGTEK)
Prevention of atherosclerotic lesion of full-length aorta (apoE knockout mice [1]): 48% | Prevention of accumulation of neutral lipids at the aortic root caused by high-fat diet (apoE knockout mice [2]): 35% | Prevention of accumulation of neutral lipids in liver tissue caused by high-fat diet (apoE knockout mice [3]): 53% | Percentage of weight gain during experiment ([4]; HFD + 21H21 50 μg tail vein once every three days): 10.02% | Average body weight after experiment ([4]; HFD + 21H21 50 μg tail vein once every three days, 10 injections): 29.2 ± 0.02 g | Average body weight before experiment ([4]; HFD + 21H21 group (n = 8), baseline): 26.54 ± 0.02 g | Percentage of weight gain offset by 21H21 ([4]; HFD + 21H21 vs HFD): 29% and 29.17% | Effect on weight gain by high-fat diet ([5]; 50 μg per mouse i.v. once every four days): able to offset weight gain | Percentage decrease of body weight (HFD + 21H21 vs HFD) ([5]; Day 88): 12.82% | Average body weight per mouse ([5]; Day 88, HFD + 21H21 50 μg tail vein once every four days): 24.38 g | Percentage decrease of body weight (HFD + 21H21 vs HFD) ([5]; Day 97): 14.46% | Average body weight per mouse ([5]; Day 97, HFD + 21H21 50 μg tail vein once every four days): 24.83 g | Percentage decrease of body weight (HFD + 21H21 vs HFD) ([5]; Day 105): 15.79% | Average body weight per mouse ([5]; Day 105, HFD + 21H21 50 μg tail vein once every four days): 25.21 g | Percentage decrease of body weight (HFD + 21H21 vs HFD) ([5]; Day 110): 13.82% | Average body weight per mouse ([5]; Day 110, HFD + 21H21 50 μg tail vein once every four days): 25.61 g | Percentage decrease of body weight (HFD + 21H21 vs HFD) ([5]; Day 119): 12.24% | Average body weight per mouse ([5]; Day 119, HFD + 21H21 50 μg tail vein once every four days): 26.63 g | Percentage decrease of body weight (HFD + 21H21 vs HFD) ([5]; Day 123): 15.04% | Average body weight per mouse ([5]; Day 123, HFD + 21H21 50 μg tail vein once every four days): 26.76 g | Prevention of atherosclerotic lesion of full-length aorta (LDLR-deficient mice): 94%
